ChEMBL document CHEMBL1201862, “PubChem BioAssay data set” (2004)
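96-well plates; 48 h exposure; 5 concentrations. Endpoints by linear interpolation between flanking doses. Not reached: highest tested concentration assigned. GI50 is the concentration that inhibits growth by half.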 Calls of active or inactive are those of the source. Cut-off read from the data, not from the text of the source: active = GI50 up to about 1.1 µM and inactive = higher.

What was measured:
Test in all cases: inhibition of tumour cell growth, NCI panel, 48 h
[1] = test system: SK-MEL-28
[2] = test system: NCI/ADR-RES
[3] = test system: SW-620
[4] = test system: Malme-3M
[5] = test system: NCI-H460
[6] = test system: OVCAR-8
[7] = test system: UACC-257
[8] = test system: LOX IMVI
[9] = test system: UACC-62
[10] = test system: NCI-H23
[11] = test system: IGROV-1
[12] = test system: TK-10
[13] = test system: A549
[14] = test system: DU-145
[15] = test system: COLO 205
[16] = test system: SF-295
[17] = test system: MOLT-4
[18] = test system: SF-539
[19] = test system: ACHN
[20] = test system: HOP-92

| SMILES | GI50 [1] | GI50 [2] | GI50 [3] | GI50 [4] | GI50 [5] | GI50 [6] | GI50 [7] | GI50 [8] | GI50 [9] | GI50 [10] | GI50 [11] | GI50 [12] | GI50 [13] | GI50 [14] | GI50 [15] | GI50 [16] | GI50 [17] | GI50 [18] | GI50 [19] | GI50 [20] |
| --- | --- | --- | --- | --- | --- | --- | --- | --- | --- | --- | --- | --- | --- | --- | --- | --- | --- | --- | --- | --- |
| C[N+](C)=C/C=C(\Cl)c1ccc2ccccc2c1 | 3.61 µM (inactive) | 6.87 µM (inactive) | 4.29 µM (inactive) | 11.8 µM (inactive) | 23.3 µM (inactive) | 9.66 µM (inactive) | 12.2 µM (inactive) | 4.33 µM (inactive) | 15.1 µM (inactive) | 5.98 µM (inactive) | 16.5 µM (inactive) | 16.3 µM (inactive) | > 75.7 µM (inactive) | 14.9 µM (inactive) | 19.2 µM (inactive) | 16.9 µM (inactive) | 1.54 µM (inactive) | 25.1 µM (inactive) | 14 µM (inactive) | 21 µM (inactive) |
| CC(=O)OC1CC2(C)C(=CC1C1SCCS1)CCC1C2CCC2(C)C(OC(C)=O)CCC12 (stereo not given) | > 100 µM (inactive) | > 100 µM (inactive) | > 100 µM (inactive) | > 100 µM (inactive) | > 100 µM (inactive) | > 100 µM (inactive) | > 100 µM (inactive) | > 100 µM (inactive) | > 100 µM (inactive) | > 100 µM (inactive) | > 100 µM (inactive) | 64.1 µM (inactive) | > 100 µM (inactive) | > 100 µM (inactive) | > 100 µM (inactive) | 23.4 µM (inactive) | > 100 µM (inactive) | 53.1 µM (inactive) | > 100 µM (inactive) | 66.4 µM (inactive) |
| CCCS(=O)OC1C(C2COC(C)(C)O2)OC2OC(C)(C)OC21 (stereo not given) | 14.5 µM (inactive) | 17.5 µM (inactive) | 8.49 µM (inactive) | 9.59 µM (inactive) | 22.8 µM (inactive) | 10.5 µM (inactive) | 13.6 µM (inactive) | 6.43 µM (inactive) | 12.1 µM (inactive) | 7.26 µM (inactive) | 14.3 µM (inactive) | 16.2 µM (inactive) | 20.9 µM (inactive) | 20.2 µM (inactive) | 11.7 µM (inactive) | 15.1 µM (inactive) | 1.63 µM (inactive) | 10.3 µM (inactive) | 13.7 µM (inactive) | 5.87 µM (inactive) |
| CC1OC(O[C@H]2CC[C@]3(C=O)[C@H]4CC[C@]5(C)[C@H](C6=CC(=O)OC6)CC[C@]5(O)[C@@H]4C=C[C@]3(O)C2)CC(O)C1O (stereo not given in full) | 0.692 µM (active) | 0.27 µM (active) | 0.313 µM (active) | 0.13 µM (active) | 0.118 µM (active) | 0.346 µM (active) | 0.579 µM (active) | 0.292 µM (active) | 0.434 µM (active) | 0.143 µM (active) | 0.157 µM (active) | 0.29 µM (active) | 0.113 µM (active) | 0.128 µM (active) | 0.675 µM (active) | 0.13 µM (active) | 0.083 µM (active) | 0.169 µM (active) | 0.106 µM (active) | 0.577 µM (active) |
| O=C1c2ccccc2CC12Cc1ccc3c(c1C2)CCC3 (stereo not given) | 31 µM (inactive) | 4.24 µM (inactive) | 30.5 µM (inactive) | 13.6 µM (inactive) | 23.7 µM (inactive) | 28.8 µM (inactive) | 11.7 µM (inactive) | 12.4 µM (inactive) | 20.3 µM (inactive) | 28.8 µM (inactive) | 25.5 µM (inactive) | 2.36 µM (inactive) | 17.5 µM (inactive) | 34.6 µM (inactive) | 19 µM (inactive) | 25.4 µM (inactive) | 23.8 µM (inactive) | 27.5 µM (inactive) | 22.6 µM (inactive) | 14 µM (inactive) |
| S=c1cc(-c2ccc3c(c2)OCO3)s[nH]1 | > 100 µM (inactive) | > 100 µM (inactive) | > 100 µM (inactive) | > 100 µM (inactive) | > 100 µM (inactive) | > 100 µM (inactive) | > 100 µM (inactive) | > 100 µM (inactive) | 83.2 µM (inactive) | > 100 µM (inactive) | > 100 µM (inactive) | > 100 µM (inactive) | > 100 µM (inactive) | > 100 µM (inactive) | > 100 µM (inactive) | > 100 µM (inactive) | 65.3 µM (inactive) | > 100 µM (inactive) | > 100 µM (inactive) | > 100 µM (inactive) |
| Cc1cc2c3ccccc3n(C)c2c2c1C(=O)C=CC2=O | 21.5 µM (inactive) | 33.9 µM (inactive) | 10.7 µM (inactive) | 20 µM (inactive) | 17.1 µM (inactive) | 24.8 µM (inactive) | 13.2 µM (inactive) | 17.5 µM (inactive) | 16.3 µM (inactive) | 12.4 µM (inactive) | 16.8 µM (inactive) | 16.5 µM (inactive) | 40.4 µM (inactive) | 21.7 µM (inactive) | 17.9 µM (inactive) | 27.7 µM (inactive) | 6.76 µM (inactive) | 21.6 µM (inactive) | 20.9 µM (inactive) | 12.1 µM (inactive) |
| COc1ccc(N2C(=O)[C@H]3[C@H]4CC(C(C)(C)C)CC[C@H]4c4c(n(C)c5ccccc45)[C@H]3C2=O)cc1 (stereo not given in full) | > 100 µM (inactive) | > 100 µM (inactive) | > 100 µM (inactive) | > 100 µM (inactive) | > 10 µM (inactive) | > 100 µM (inactive) | > 100 µM (inactive) | > 100 µM (inactive) | 53.5 µM (inactive) | > 100 µM (inactive) | > 100 µM (inactive) | > 10 µM (inactive) | > 100 µM (inactive) | > 100 µM (inactive) | > 100 µM (inactive) | > 100 µM (inactive) | > 100 µM (inactive) | 32.4 µM (inactive) | > 100 µM (inactive) | > 100 µM (inactive) |
| CSCCCNC(=O)c1csc(-c2csc(CCNC(=O)CNC(=O)OC(C)(C)C)n2)n1 | > 100 µM (inactive) | > 100 µM (inactive) | > 100 µM (inactive) | > 100 µM (inactive) | > 100 µM (inactive) | > 100 µM (inactive) | > 100 µM (inactive) | > 100 µM (inactive) | 28.6 µM (inactive) | 77.6 µM (inactive) | > 100 µM (inactive) | > 100 µM (inactive) | > 100 µM (inactive) | > 100 µM (inactive) | > 100 µM (inactive) | > 100 µM (inactive) | 40.7 µM (inactive) | > 100 µM (inactive) | > 100 µM (inactive) | > 100 µM (inactive) |
| c1cc(C2=NCCO2)c2ccsc2c1 | > 100 µM (inactive) | > 100 µM (inactive) | > 100 µM (inactive) | > 100 µM (inactive) | > 100 µM (inactive) | > 100 µM (inactive) | > 100 µM (inactive) | > 100 µM (inactive) | > 100 µM (inactive) | > 100 µM (inactive) | > 100 µM (inactive) | > 100 µM (inactive) | > 100 µM (inactive) | > 100 µM (inactive) | > 100 µM (inactive) | > 100 µM (inactive) | > 100 µM (inactive) | > 100 µM (inactive) | > 100 µM (inactive) | 41.2 µM (inactive) |
| O=C1N/C(=N/N=C/C(O)C(O)C(O)CO)N/C1=C\c1c[nH]c2ccccc12 (stereo not given) | > 100 µM (inactive) | > 100 µM (inactive) | > 100 µM (inactive) | > 100 µM (inactive) | > 100 µM (inactive) | > 100 µM (inactive) | > 100 µM (inactive) | > 100 µM (inactive) | > 100 µM (inactive) | > 100 µM (inactive) | > 100 µM (inactive) | > 100 µM (inactive) | > 100 µM (inactive) | > 100 µM (inactive) | > 100 µM (inactive) | > 100 µM (inactive) | > 100 µM (inactive) | > 100 µM (inactive) | > 100 µM (inactive) | > 100 µM (inactive) |
